Marks after values point to notes of the source that are not given here.
How the values were obtained:
P. multocida 46572 = experiment: In vivo mouse lung infection challenge model (murine); set-up: species or system CD-1 female mice
Experimental: The challenge organism was P. multocida 46572. Target challenge concentration was 5×10^2 CFU/mouse. Isolated colonies from overnight growth (37° C. with 5% CO2) on trypticase soy agar (TSA II) blood plates were transferred to room temperature Brain Heart Infusion Broth (BHIB). The broth culture was incubated 3.5-4 hours to approximately mid-log phase of growth, as measured by forward light scatter at 600 nm (OD600, 0.200). The culture was centrifuged to collect the bacterial pellet. The pellet was re-suspended in BHIB and adjusted to provide an approximate concentration of 2.7 log^10 colony forming units (CFU) in 0.04 mL at the highest concentration. The challenge inoculum concentration was confirmed by serial dilutions of the inoculum for CFU enumeration. On Day −5, CD-1 female mice were received. Mice were given standard rodent diet and water ad libitum. On Day 0, bacterial inoculum (0.04 mL) was administered to each mouse (n=36) intranasally. Compounds of the invention were dosed at 20 mg/kg (0.1 mL) in a buffered (˜pH 5.4) propylene glycol, monothioglycerol and water solution by subcutaneous injection. Animals were observed from Days 1-10. The study was terminated on Day 10. In addition, some treatment groups were sampled at 6, 24, and 48 hours post bacterial challenge for RNA sequence analysis of lung tissue.
The murine efficacy model (P. multocida challenge) was optimized, and the treatment group size was powered to be able to observe statistically significant improvement of survival to expected ranges for immunomodulatory compounds. The experimental design was a randomized complete block design. Mice were individually identified and treatment groups comingled within a cage, with every treatment group equally represented across cages. Mortality was the primary variable. Mortality data was analyzed using a generalized mixed model with fixed effect of treatment and random effect of block. Survival time was also analyzed using the SAS PHREG (survival analysis) procedure to examine whether there were significant differences between treatment groups and the control group. Numerous compounds of the invention and M9 (positive control) were tested in this model at a dose of 20 mg/kg (Table 3). Typical percent survival for no treatment control is in the range of 0-20% based on study to study variation in challenge inoculum and rate of infection. […] Mouse survival for M9 was about 90-100%, further supporting its residual antibacterial properties against the bacterial strain. Harmonized survival accounts for % survival relative to vehicle (“−” control) and M9 (“+” control)) survival data (Table 3).

[1] = test system: BRD pathogens, M. haemolytica and P. multocida; experiment: In-vitro MIC model, BRD pathogen screening panel; format: cell-based, Mannheimia haemolytica; Pasteurella multocida; settings: at least one BRD strain
TNF-α = experiment: Whole blood assay, LPS stimulation, MSD cytokine detection; format: cell-based; settings: fresh whole bovine blood
IL-1β = experiment: as above; format: cell-based, bovine; settings: fresh whole bovine blood, LPS stimulation; drug concentration giving overstimulation (OS) of IL-1β
IL-6 = experiment: as above; format: cell-based; settings: fresh whole bovine blood
[2] = harmonized survival relative to vehicle and M9, 20 mg/kg subcutaneous, Day 10

With `CC[C@H]1OC(=O)[C@H](C)[C@@H](O)[C@H](C)[C@@H](O[C@@H]2O[C@H](C)C[C@H](N(C)C(=O)N(C)c3ccccc3)[C@H]2Oc2ccccc2)[C@](C)(O)C[C@@H](C)CN(C)[C@H](C)[C@@H](O)[C@]1(C)O` [Example C-12, 1-((2S,3R,4S,6R)-2-(((2R,3S,4R,5R,8R,10R,11R,12S,13S,14R)-2-ethyl-3,4,10,13-tetrahydroxy-3,5,6,8,10,12,14-heptamethyl-15-oxo-1-oxa-6-azacyclopentadecan-11-yl)oxy)-6-methyl-3-phenoxytetrahydro-2H-pyran-4-yl)-1,3-dimethyl-3-phenylurea] as the molecule, how does the “% Survival” value (P. multocida 46572; 46572, sc, 20 mg/kg, 240 h) read?
The value was 12%.

Which “% Survival” value (P. multocida 46572; 46572, sc, 20 mg/kg, 240 h) does the source give for `CC[C@H]1OC(=O)[C@H](C)[C@@H](O)[C@H](C)[C@@H](O[C@@H]2O[C@H](C)C[C@H](N(C)C(=O)N(C)c3cc(C)n(C)n3)[C@H]2Oc2ccccc2)[C@](C)(O)C[C@@H](C)CN[C@H](C)[C@@H](O)[C@]1(C)O` [Example C-26, 1-(1,5-dimethyl-1H-pyrazol-3-yl)-3-((2S,3R,4S,6R)-2-(((2R,3S,4R,5R,8R,10R,11R,12S,13S,14R)-2-ethyl-3,4,10,13-tetrahydroxy-3,5,8,10,12,14-hexamethyl-15-oxo-1-oxa-6-azacyclopentadecan-11-yl)oxy)-6-methyl-3-phenoxytetrahydro-2H-pyran-4-yl)-1,3-dimethylurea] here?
The value was 8%.

With `CC[C@H]1OC(=O)[C@H](C)[C@@H](O)[C@H](C)[C@@H](O[C@@H]2O[C@H](C)C[C@H](N(C)C(=O)N(C)c3cc(C)n(C)n3)[C@H]2Oc2ccccc2)[C@](C)(O)C[C@@H](C)CN(C)[C@H](C)[C@@H](O)[C@]1(C)O` [Example C-30, 1-(1,5-dimethyl-1H-pyrazol-3-yl)-3-((2S,3R,4S,6R)-2-(((2R,3S,4R,5R,8R,10R,11R,12S,13S,14R)-2-ethyl-3,4,10,13-tetrahydroxy-3,5,6,8,10,12,14-heptamethyl-15-oxo-1-oxa-6-azacyclopentadecan-11-yl)oxy)-6-methyl-3-phenoxytetrahydro-2H-pyran-4-yl)-1,3-dimethylurea] as the molecule, how does the “% Survival” value (P. multocida 46572; 46572, sc, 20 mg/kg, 240 h) read?
The value was 0%.

How did the “MIC flag at the example number (Table E)” value [1] turn out when `CCCNC[C@]1(O)[C@H](C)O[C@@H](O[C@H]2[C@H](C)[C@@H](O[C@@H]3O[C@H](C)C[C@H](NC)[C@H]3Oc3ccc4ccncc4c3)[C@](C)(O)C[C@@H](C)CN[C@H](C)[C@@H](O)[C@](C)(O)[C@@H](CC)OC(=O)[C@@H]2C)C[C@@]1(C)OC` [Example E-56] was run?
The value was “E-56* (MIC ≤ 64 μg/mL for at least one BRD strain)”.

And the IC50 (TNF-α)?
Its IC50 is 11 µM.

And the “IL-1ß OS of LPS” value (IL-1β)?
The value was 100 µM.

What about the IC50 (IL-6) of the same molecule?
The IC50 was 120 µM.

With `CCCNC[C@]1(O)[C@H](C)O[C@@H](O[C@H]2[C@H](C)[C@@H](O[C@@H]3O[C@H](C)C[C@H](NC)[C@H]3Oc3ccccc3C)[C@](C)(O)C[C@@H](C)CN[C@H](C)[C@@H](O)[C@](C)(O)[C@@H](CC)OC(=O)[C@@H]2C)C[C@@]1(C)OC` [Example E-61] as the molecule, how does the “MIC flag at the example number (Table E)” value [1] read?
Its value is “E-61* (MIC ≤ 64 μg/mL for at least one BRD strain)”.

What about the IC50 (TNF-α) of the same molecule?
The IC50 was 5 µM.

And the “IL-1ß OS of LPS” value (IL-1β)?
The value was 16 µM.

And the IC50 (IL-6)?
The IC50 was 19 µM.

Which results are given for `CC[C@H]1OC(=O)[C@H](C)[C@@H](O[C@H]2C[C@@](C)(OC)[C@](O)(CNc3ccccc3)[C@H](C)O2)[C@H](C)[C@@H](O[C@@H]2O[C@H](C)C[C@H](N(C)C)[C@H]2Oc2ccccc2)[C@](C)(O)C[C@@H](C)CN[C@H](C)[C@@H](O)[C@]1(C)O` [Example E-67]?
MIC flag at the example number (Table E) [1]: E-67* (MIC ≤ 64 μg/mL for at least one BRD strain); IC50 (TNF-α): 5 µM; IL-1ß OS of LPS (IL-1β): 6 µM; IC50 (IL-6): 8 µM

Which “MIC flag at the example number (Table E)” value [1] does the source give for `CCCNC[C@]1(O)[C@H](C)O[C@@H](O[C@H]2[C@H](C)[C@@H](O[C@@H]3O[C@H](C)C[C@H](N(C)C)[C@H]3Oc3cccc(OC)c3)[C@](C)(O)C[C@@H](C)CN[C@H](C)[C@@H](O)[C@](C)(O)[C@@H](CC)OC(=O)[C@@H]2C)C[C@@]1(C)OC` [Example E-73] here?
The value was “E-73* (MIC ≤ 64 μg/mL for at least one BRD strain)”.

What about the IC50 (TNF-α) of the same molecule?
Its IC50 is 5 µM.

What about the “IL-1ß OS of LPS” value (IL-1β) of the same molecule?
The value was 16 µM.

What about the IC50 (IL-6) of the same molecule?
Its IC50 is 18 µM.

What does the source list for `CCCNC[C@]1(O)[C@H](C)O[C@@H](O[C@H]2[C@H](C)[C@@H](O[C@@H]3O[C@H](C)C[C@H](NC)[C@H]3Oc3ccc(OC)nc3OC)[C@](C)(O)C[C@@H](C)CN[C@H](C)[C@@H](O)[C@](C)(O)[C@@H](CC)OC(=O)[C@@H]2C)C[C@@]1(C)OC` [Example E-77]?
MIC flag at the example number (Table E) [1]: E-77* (MIC ≤ 64 μg/mL for at least one BRD strain); IC50 (TNF-α): 22 µM; IL-1ß OS of LPS (IL-1β): 18 µM; IC50 (IL-6): 66 µM

How did the “MIC flag at the example number (Table E)” value [1] turn out when `CCCNC[C@]1(O)[C@H](C)O[C@@H](O[C@H]2[C@H](C)[C@@H](O[C@@H]3O[C@H](C)C[C@H](NC)[C@H]3Oc3cc(F)c(F)c(F)c3)[C@](C)(O)C[C@@H](C)CN[C@H](C)[C@@H](O)[C@](C)(O)[C@@H](CC)OC(=O)[C@@H]2C)C[C@@]1(C)OC` [Example E-90] was run?
The value was “E-90* (MIC ≤ 64 μg/mL for at least one BRD strain)”.

What about the IC50 (TNF-α) of the same molecule?
The IC50 was 12 µM.

What about the “IL-1ß OS of LPS” value (IL-1β) of the same molecule?
The value was 6 µM.

And the IC50 (IL-6)?
The IC50 was 8 µM.

With `CCCNC[C@]1(O)[C@H](C)O[C@@H](O[C@H]2[C@H](C)[C@@H](O[C@@H]3O[C@H](C)C[C@H](N(C)C(=O)N(C)c4cc(C)n(C)n4)[C@H]3Oc3ccccc3)[C@](C)(O)C[C@@H](C)CN[C@H](C)[C@@H](O)[C@](C)(O)[C@@H](CC)OC(=O)[C@@H]2C)C[C@@]1(C)OC` [Example F-19, 1-(1,5-dimethyl-1H-pyrazol-3-yl)-3-((2S,3R,4S,6R)-2-(((2R,3S,4R,5R,8R,10R,11R,12S,13S,14R)-2-ethyl-3,4,10-trihydroxy-13-(((2R,4R,5S,6S)-5-hydroxy-4-methoxy-4,6-dimethyl-5-((propylamino)methyl)tetrahydro-2H-pyran-2-yl)oxy)-3,5,8,10,12,14-hexamethyl-15-oxo-1-oxa-6-azacyclopentadecan-11-yl)oxy)-6-methyl-3-phenoxytetrahydro-2H-pyran-4-yl)-1,3-dimethylurea] as the molecule, how does the “% Survival” value (P. multocida 46572; 46572, sc, 20 mg/kg, 240 h) read?
Its value is 35%.

Which “% Survival” value (P. multocida 46572; 46572, sc, 20 mg/kg, 240 h) does the source give for `CC[C@H]1OC(=O)[C@H](C)[C@@H](O[C@H]2C[C@@](C)(OC)[C@](O)(CN3CCOCC3)[C@H](C)O2)[C@H](C)[C@@H](O[C@@H]2O[C@H](C)C[C@H](N(C)C)[C@H]2Oc2ccccc2)[C@](C)(O)C[C@@H](C)CN[C@H](C)[C@@H](O)[C@]1(C)O` [Example H-3, (2R,3S,4R,5R,8R,10R,11R,12S,13S,14R)-11-(((2S,3R,4S,6R)-4-(dimethylamino)-6-methyl-3-phenoxytetrahydro-2H-pyran-2-yl)oxy)-2-ethyl-3,4,10-trihydroxy-13-(((2R,4R,5S,6S)-5-hydroxy-4-methoxy-4,6-dimethyl-5-(morpholinomethyl)tetrahydro-2H-pyran-2-yl)oxy)-3,5,8,10,12,14-hexamethyl-1-oxa-6-azacyclopentadecan-15-one] here?
The value was 8%.

With `CCCNC[C@]1(O)[C@H](C)O[C@@H](O[C@H]2[C@H](C)[C@@H](O[C@@H]3O[C@H](C)C[C@H](N(C)C(=O)N(C)c4ccccc4)[C@H]3O)[C@](C)(O)C[C@@H](C)CN[C@H](C)[C@@H](O)[C@](C)(O)[C@@H](CC)OC(=O)[C@@H]2C)C[C@@]1(C)OC` [Example H-11] as the molecule, how does the “% Survival” value (P. multocida 46572; [2]) read?
Its value is 36%.

For `CCCNC[C@]1(O)[C@H](C)O[C@@H](O[C@H]2[C@H](C)[C@@H](O[C@@H]3O[C@H](C)C[C@H](N(C)C(=O)N(C)c4ccc(C(F)(F)F)cc4)[C@H]3O)[C@](C)(O)C[C@@H](C)CN[C@H](C)[C@@H](O)[C@](C)(O)[C@@H](CC)OC(=O)[C@@H]2C)C[C@@]1(C)OC` [Example H-13], which “% Survival” value (P. multocida 46572; [2]) is on record?
Its value is 59%.

With `CCCNC[C@]1(O)[C@H](C)O[C@@H](O[C@H]2[C@H](C)[C@@H](O[C@@H]3O[C@H](C)C[C@H](N(C)C(=O)N(c4ccccc4)c4ccccc4)[C@H]3O)[C@](C)(O)C[C@@H](C)CN[C@H](C)[C@@H](O)[C@](C)(O)[C@@H](CC)OC(=O)[C@@H]2C)C[C@@]1(C)OC` [Example H-39] as the molecule, how does the “% Survival” value (P. multocida 46572; [2]) read?
The value was 44%.

How did the “% Survival” value (P. multocida 46572; [2]) turn out when `CCCNC[C@]1(O)[C@H](C)O[C@@H](O[C@H]2[C@H](C)[C@@H](O[C@@H]3O[C@H](C)C[C@H](N(Cc4nccs4)C(=O)N(C)c4ccccc4)[C@H]3O)[C@](C)(O)C[C@@H](C)CN[C@H](C)[C@@H](O)[C@](C)(O)[C@@H](CC)OC(=O)[C@@H]2C)C[C@@]1(C)OC` [Example H-64] was run?
The value was 0%.

Source: patent US12390441B2, “Immunomodulating o-het/aryl azalides” (Zoetis Services LLC, priority 2020, dated 2025)
